One may read the IC50 as the concentration needed to halve the response being measured. The EC50 is the concentration needed to bring the measured effect to its halfway point.

The source of these data is publication PMC6581572 (ChemMedChem, 2019).

Like-named read-outs stand apart in the source and are kept apart here.

Data set [1] deals with IAV endonuclease (Influenza A virus, UniProt C3W5S0). As to the kind of experiment: High throughput endonuclease assay. In kind it is biochemical, influenza A/California/04/09 H1N1. The following applies: for LE kcal/(mol·NHA): ligand efficiency, Tables 1 and 2.
A short description of data set [2]: Chemical stability of the isolated compound. Type of data set: physicochemical. The following applies: isolated tetrazole product, two synthetic routes.
Data set [3] deals with influenza A/Puerto Rico/08/1934 H1N1 expressing mCherry (PR8-mCherry). Particulars: read-out: EC50, antiviral activity; cellular assay, previously reported; cited from earlier work.

With `O=c1[nH]c(Cc2cccc3ccccc23)c(-c2ccc(-c3nnn[nH]3)cc2)cc1O` [Compound 22, 5-(4-(1H-Tetrazol-5-yl)phenyl)-3-hydroxy-6-(naphthalen-1-ylmethyl)pyridin-2(1H)-one], the “LE kcal/(mol·NHA)” value in data set [1] (LE = −RTln(IC50)/NHA) is 0.358 kcal/(mol·NHA).

In the case of `N#Cc1ccc(-c2cc(O)c(=O)[nH]c2-c2ccc(F)cc2)cc1` [Compound 1], in data set [1] (LE = −RTln(IC50)/NHA), the “LE kcal/(mol·NHA)” value was 0.409 kcal/(mol·NHA). In data set [1], `O=c1[nH]c(-c2ccc(F)cc2)c(-c2ccc(-c3cnn[nH]3)cc2)cc1O` [Compound 17, 5-(4-(1H-1,2,3-Triazol-5-yl)phenyl)-6-(4-fluorophenyl)-3-hydroxypyridin-2(1H)-one] returned an IC50 of 25 nM. In addition, the “LE kcal/(mol·NHA)” value in data set [1] (LE = −RTln(IC50)/NHA) is 0.401 kcal/(mol·NHA). As to `Cn1nnc(-c2ccc(-c3cc(O)c(=O)[nH]c3-c3ccc(F)cc3)cc2)n1` [Compound 14, 6-(4-Fluorophenyl)-3-hydroxy-5-(4-(2-methyl-2H-tetrazol-5-yl)phenyl)pyridin-2(1H)-one], the IC50 in data set [1] turned out to be 138 nM. Also, the “LE kcal/(mol·NHA)” value in data set [1] (LE = −RTln(IC50)/NHA) is 0.348 kcal/(mol·NHA). For `O=c1[nH]c(-c2ccc(-c3nnn[nH]3)cc2)c(Cc2ccc(F)cc2)cc1O` [Compound 28, 6-(4-(1H-Tetrazol-5-yl)phenyl)-5-(4-fluorobenzyl)-3-hydroxypyridin-2(1H)-one], the IC50 in data set [1] was 54 nM. In addition, the “LE kcal/(mol·NHA)” value in data set [1] (LE = −RTln(IC50)/NHA) is 0.369 kcal/(mol·NHA). For `O=C(O[C@@H]1Cc2c(O)cc(O)cc2O[C@@H]1c1cc(O)c(O)c(O)c1)c1cc(O)c(O)c(O)c1` [epigallocatechin gallate, reference compound], the “ligand efficiency of reference inhibitor” value in data set [1] (LE = −RTln(IC50)/NHA) is 0.249 kcal/(mol·NHA). Moreover, in data set [1] (read-out: IC50 of reference inhibitor in this assay, green tea catechin), the IC50 is 1000 nM. As for `O=c1[nH]c(-c2ccc3ccccc3c2)c(-c2ccc(-c3nn[nH]n3)cc2)cc1O` [tetrazole derivative of 10, 6-(2-naphthyl)-5-(p-(5-tetrazoyl)phenyl)-3-hydroxypyridin-2(1H)-one], in data set [2], the “Stability of the isolated product” value is “unexpectedly unstable”. In data set [1], `N#Cc1ccc(-c2[nH]c(=O)c(O)cc2Cc2cccc3ccccc23)cc1` [Compound 26, 4-(5-Hydroxy-3-(naphthalen-1-ylmethyl)-6-oxo-1,6-dihydropyridin-2-yl)benzonitrile] yielded an IC50 of 173 nM. Further, the “LE kcal/(mol·NHA)” value in data set [1] (LE = −RTln(IC50)/NHA) is 0.343 kcal/(mol·NHA). The compound `CC(=O)NS(=O)(=O)c1ccc(-c2cc(O)c(=O)[nH]c2-c2ccc(F)cc2)cc1` [Compound 16, N-((4-(2-(4-Fluorophenyl)-5-hydroxy-6-oxo-1,6-dihydropyridin-3-yl)phenyl)sulfonyl)acetamide] yielded an IC50 in data set [1] of 145 nM. Besides, the “LE kcal/(mol·NHA)” value in data set [1] (LE = −RTln(IC50)/NHA) is given as 0.335 kcal/(mol·NHA). Regarding `O=C(O)c1ccc(-c2cc(O)c(=O)[nH]c2-c2ccc(F)cc2)cc1` [Compound 11, 4-(2-(4-Fluorophenyl)-5-hydroxy-6-oxo-1,6-dihydropyridin-3-yl)benzoic acid], in data set [1], half-maximal inhibition (IC50) was put at 11 nM. Moreover, the “LE kcal/(mol·NHA)” value in data set [1] (LE = −RTln(IC50)/NHA) was 0.455 kcal/(mol·NHA). `O=c1[nH]c(Cc2ccc3ccccc3c2)c(-c2ccc(-c3nnn[nH]3)cc2)cc1O` [Compound 23, 5-(4-(1H-Tetrazol-5-yl)phenyl)-3-hydroxy-6-(naphthalen-2-ylmethyl)pyridin-2(1H)-one]: the “LE kcal/(mol·NHA)” value in data set [1] (LE = −RTln(IC50)/NHA) was 0.328 kcal/(mol·NHA). Regarding `N#Cc1ccc(-c2cc(O)c(=O)[nH]c2Cc2ccc3ccccc3c2)cc1` [Compound 20, 4-(5-Hydroxy-2-(naphthalen-2-ylmethyl)-6-oxo-1,6-dihydropyridin-3-yl)benzonitrile], the concentration for half-maximal inhibition (IC50) in data set [1] came out at 660 nM. For the same compound, the “LE kcal/(mol·NHA)” value in data set [1] (LE = −RTln(IC50)/NHA) is given as 0.314 kcal/(mol·NHA).

With `NS(=O)(=O)c1ccc(-c2cc(O)c(=O)[nH]c2-c2ccc(F)cc2)cc1` [Compound 15, 4-(2-(4-Fluorophenyl)-5-hydroxy-6-oxo-1,6-dihydropyridin-3-yl)benzenesulfonamide], the IC50 in data set [1] turned out to be 347 nM. In addition, the “LE kcal/(mol·NHA)” value in data set [1] (LE = −RTln(IC50)/NHA) is 0.354 kcal/(mol·NHA). As for `O=c1[nH]c(-c2ccc(-c3nnn[nH]3)cc2)c(-c2ccc(F)cc2)cc1O` [Compound 7], in data set [1] (LE = −RTln(IC50)/NHA), the “LE kcal/(mol·NHA)” value is 0.403 kcal/(mol·NHA). `O=c1[nH]c(-c2ccc(F)cc2)c(-c2ccc(-c3nnn[nH]3)cc2)cc1O` [Compound 2]: in data set [3], the EC50 was 11000 nM. As for `O=c1[nH]c(-c2cccc3ccccc23)c(-c2ccc(-c3nnn[nH]3)cc2)cc1O` [Compound 9, 5-(4-(1H-Tetrazol-5-yl)phenyl)-3-hydroxy-6-(naphthalen-1-yl)pyridin-2(1H)-one], the “LE kcal/(mol·NHA)” value in data set [1] (LE = −RTln(IC50)/NHA) is on record as 0.354 kcal/(mol·NHA).

As to `N#Cc1ccc(-c2[nH]c(=O)c(O)cc2Cc2ccc3ccccc3c2)cc1` [Compound 27, 4-(5-Hydroxy-3-(naphthalen-2-ylmethyl)-6-oxo-1,6-dihydropyridin-2-yl)benzonitrile], half-maximal inhibition in data set [1] (IC50) was put at 250 nM. The “LE kcal/(mol·NHA)” value in data set [1] (LE = −RTln(IC50)/NHA) is reported as 0.335 kcal/(mol·NHA).

Turning to `N#Cc1ccc(-c2[nH]c(=O)c(O)cc2Cc2ccc(F)cc2)cc1` [Compound 25, 4-(3-(4-Fluorobenzyl)-5-hydroxy-6-oxo-1,6-dihydropyridin-2-yl)benzonitrile], the IC50 in data set [1] was determined as 484 nM. In data set [1] (LE = −RTln(IC50)/NHA), the “LE kcal/(mol·NHA)” value is 0.361 kcal/(mol·NHA). On to `COC(=O)c1ccc(-c2cc(O)c(=O)[nH]c2-c2ccc(F)cc2)cc1` [Compound 12, Methyl 4-(2-(4-fluorophenyl)-5-hydroxy-6-oxo-1,6-dihydropyridin-3-yl)benzoate], for which, in data set [1], the IC50 was found to be 125 nM. `N#Cc1ccc(-c2cc(O)c(=O)[nH]c2Cc2ccc(F)cc2)cc1` [Compound 18, 4-(2-(4-Fluorobenzyl)-5-hydroxy-6-oxo-1,6-dihydropyridin-3-yl)benzonitrile] yielded an IC50 in data set [1] of 507 nM. Further, the “LE kcal/(mol·NHA)” value in data set [1] (LE = −RTln(IC50)/NHA) is given as 0.360 kcal/(mol·NHA).

`O=c1[nH]c(-c2ccc(-c3nnn[nH]3)cc2)c(Cc2cccc3ccccc23)cc1O` [Compound 29, 6-(4-(1H-Tetrazol-5-yl)phenyl)-3-hydroxy-5-(naphthalen-1-ylmethyl)pyridin-2(1H)-one]: the “LE kcal/(mol·NHA)” value in data set [1] (LE = −RTln(IC50)/NHA) is 0.362 kcal/(mol·NHA).

In the case of `N#Cc1ccc(-c2cc(O)c(=O)[nH]c2-c2cccc3ccccc23)cc1` [Compound 8, 4-(5-Hydroxy-2-(naphthalen-1-yl)-6-oxo-1,6-dihydropyridin-3-yl)benzonitrile], half-maximal inhibition in data set [1] (IC50) was put at 220 nM. For the same compound, in data set [1] (LE = −RTln(IC50)/NHA), the “LE kcal/(mol·NHA)” value is given as 0.351 kcal/(mol·NHA). As for `O=c1[nH]c(-c2ccc(-c3nnn[nH]3)cc2)c(Cc2ccc3ccccc3c2)cc1O` [Compound 30, 6-(4-(1H-Tetrazol-5-yl)phenyl)-3-hydroxy-5-(naphthalen-2-ylmethyl)pyridin-2(1H)-one], the “LE kcal/(mol·NHA)” value in data set [1] (LE = −RTln(IC50)/NHA) was 0.324 kcal/(mol·NHA).

Consider `N#Cc1ccc(-c2cc(O)c(=O)[nH]c2-c2ccc3ccccc3c2)cc1` [Compound 10, 4-(5-Hydroxy-2-(naphthalen-2-yl)-6-oxo-1,6-dihydropyridin-3-yl)benzonitrile], for which, in data set [1] (LE = −RTln(IC50)/NHA), the “LE kcal/(mol·NHA)” value is 0.330 kcal/(mol·NHA). For the compound `O=C(O)c1ccc(-c2[nH]c(=O)c(O)cc2-c2ccc(F)cc2)cc1` [Compound 24, 4-(3-(4-Fluorophenyl)-5-hydroxy-6-oxo-1,6-dihydropyridin-2-yl)benzoic acid], in data set [1], the IC50 worked out at 55 nM. Further, in data set [1] (LE = −RTln(IC50)/NHA), the “LE kcal/(mol·NHA)” value is 0.415 kcal/(mol·NHA). Compound `Cn1nnnc1-c1ccc(-c2cc(O)c(=O)[nH]c2-c2ccc(F)cc2)cc1` [Compound 13, 6-(4-Fluorophenyl)-3-hydroxy-5-(4-(1-methyl-1H-tetrazol-5-yl)phenyl)pyridin-2(1H)-one] displayed an IC50 in data set [1] of 298 nM. Also, the “LE kcal/(mol·NHA)” value in data set [1] (LE = −RTln(IC50)/NHA) is 0.331 kcal/(mol·NHA).

As to `O=c1[nH]c(Cc2ccc(F)cc2)c(-c2ccc(-c3nnn[nH]3)cc2)cc1O` [Compound 21, 5-(4-(1H-Tetrazol-5-yl)phenyl)-6-(4-fluorobenzyl)-3-hydroxypyridin-2(1H)-one], in data set [1], it took 26 nM to reach half-maximal inhibition (IC50). Besides, the “LE kcal/(mol·NHA)” value in data set [1] (LE = −RTln(IC50)/NHA) is 0.385 kcal/(mol·NHA). In data set [1], `N#Cc1ccc(-c2cc(O)c(=O)[nH]c2Cc2cccc3ccccc23)cc1` [Compound 19, 4-(5-Hydroxy-2-(naphthalen-1-ylmethyl)-6-oxo-1,6-dihydropyridin-3-yl)benzonitrile] gave an IC50 of 114 nM. Moreover, the “LE kcal/(mol·NHA)” value in data set [1] (LE = −RTln(IC50)/NHA) is on record as 0.353 kcal/(mol·NHA).

For `N#Cc1ccc(-c2[nH]c(=O)c(O)cc2-c2ccc(F)cc2)cc1` [Compound 6], in data set [1] (LE = −RTln(IC50)/NHA), the “LE kcal/(mol·NHA)” value is 0.433 kcal/(mol·NHA).
